The values below come from a melting point compilation (Tetko et al.; mined from patent text by program, amines drawn as free bases though some values may be those of a salt).

Structures are written as SMILES.

Broadly, the melting point is the temperature of the solid-liquid transition. In turn, `N#Cc1ccc(NCCc2nc3cc(Cl)ccc3c3nn(-c4ccccc4)cc23)nc1` returned a melting point of 207 to 208 °C.

On to `O=C1NOc2cccc3nc4c(c(c23)C1Cc1ccccc1)CCCC4` (stereo not given), for which the melting point was 166 to 168 °C.

Compound `O=C1c2ccccc2C(O)N1CCCl` (stereo not given) gave a melting point of 133 to 134 °C.

For the compound `COc1ccc(OCCOc2ccc(C(=O)C(=O)O)cc2)cc1`, the melting point was in the range of 138 to 139 °C.

Compound `O=c1[nH]ncc2ccc(/C=C/c3ccc(O)cc3)cc12` yielded a melting point of 305 to 308 °C.

Take `COc1ccc(C=CS(=O)(=O)Cl)cc1`: the melting point was in the range of 65 to 67 °C.

`CCOc1c(Br)ccc(C(=O)OC)c1N(C)S(C)(=O)=O`: the melting point lay in the range of 82 to 88 °C.

In turn, `O=[N+]([O-])c1cc(Br)ccc1N1CCc2cc(Br)ccc21` yielded a melting point of 150 to 152 °C.

For `COC(=O)CCc1cnoc1-c1ccc(F)cc1F`, the melting point was in the range of 40 to 41 °C.

Regarding `O=NN(CCCl)C(=O)NC1(C(=O)Nc2nncs2)CCCC1`, the melting point amounted to 160 °C.

Turning to `CCOC(=O)C[C@H]1O[C@H](c2ccc(OCC)cc2OC)c2cc(Cl)ccc2N(CC(C)(C)C)C1=O` (relative stereo), the melting point is 164 to 166 °C.

On to `NC(=O)c1cccc2[nH]c(-c3ccc(O)cc3)nc12`, for which the melting point lay in the range of 266 to 267 °C.

`O=C(CNC(=O)OCc1ccccc1)Nc1nnc(SCc2ccccc2)s1` showed a melting point of 200 to 202 °C.

`COc1ccc2cc3c(c(-c4ccc(OC(F)(F)F)cc4)c2c1)C(=O)NC3=O` gave a melting point of 282 to 284 °C.

`O=C1CCC(c2ccc(-c3ccccc3Cl)o2)O1` (stereo not given) gave a melting point of 101 to 103 °C.

Regarding `c1c(C2CC2)n[nH]c1C1CC1`, the melting point fell in the range of 161 to 164 °C.

`C=CCC(=O)NCCN1CCOc2ccc(OC)cc21`: the melting point lay within 80 to 81 °C.

In turn, `COc1cc(C)nc(NC(=O)NS(=O)(=O)c2ccccc2C2=CCCC2)n1` gave a melting point of 235 to 236 °C.

`O=C1C(=CO)C(c2ccc(Cl)cc2Cl)c2c(Cl)cc(Cl)cc21` (stereo not given) came in with a melting point of 189 to 191 °C.

For the compound `Cn1c(C(F)(F)F)cc(=O)n(-c2cc(OCC(C)(C)C)c(Cl)cc2F)c1=O`, the melting point fell in the range of 122 to 124 °C.

Regarding `COc1ccc2c(c1)[nH]c1c(C)nc3c(c12)C(=O)CC(C)(C)C3`, the melting point is 250 to 252 °C.

Consider `CC(C)Cn1c(CN2CCOCC2)nc2c(N)nc3c(c21)CCCC3`, for which the melting point is 165 to 172 °C.

In the case of `Cc1ccccc1C(=O)NCC(C)O` (stereo not given), the melting point lay within 78 to 81 °C.

`CCOC(=O)C(=O)Nc1ccc2c(c1)CC(=O)N2` came in with a melting point of 235 to 237 °C.

For the compound `OCc1nc(-c2ccc3c(c2)Nc2ccccc2S3)cs1`, the melting point is 120 to 122 °C.

`CN1C(=O)[C@H](NC(=O)/C=C/c2ccc(Cl)cc2Cl)N=C(c2ccccc2)c2ccccc21`: the melting point lay within 137 to 139 °C.

Consider `COc1cc2ncnc(Nc3ccc4[nH]ccc4c3)c2cc1I`, for which the melting point lay within 260 to 267 °C.

`CO/C=C(/C(=O)OC)c1ccccc1C=CCO` gave a melting point of 78 to 80 °C.

In turn, `CCC(CC)n1nc(C)c2c(Cl)nc(C)nc21` gave a melting point of 33 to 34 °C.

`CN(O)C(=O)Nc1c(C(=O)c2ccccc2)[nH]c2cc(Cl)ccc12` yielded a melting point of 208 to 214 °C.

`CC(C)(C)OC(=O)C(C1NC(C(=O)OCc2ccccc2)C2(CCCCC2)S1)N1C(=O)c2ccccc2C1=O` (stereo not given) came in with a melting point of 165 to 166 °C.

In turn, `COC(=O)C(Br)c1ccc(OCCCOc2ccc(Cl)cc2)cc1` (stereo not given) returned a melting point of 49 to 53 °C.

As for `CCCCCC(C=CC1C(O[Si](C)(C)C(C)(C)C)CC2Cc3c(cccc3OC(=O)c3ccccc3)CC21)O[Si](C)(C)C(C)(C)C` (stereo not given), the melting point fell in the range of 140 to 141 °C.

`CCNc1cn(-c2cccnc2)nc1Cl` gave a melting point of 89 to 90 °C.

For the compound `Cc1ccc(S(=O)(=O)N(c2ccc(C#N)cc2C#N)C(C)C)cc1`, the melting point lay within 157 to 158 °C.

On to `COC(=O)CCNC(=O)C1CCCN1C(=O)OCc1ccccc1` (stereo not given), for which the melting point was found to be 55 °C.

With `CCCCCCCOc1ccc(C(C)O)cc1` (single isomer, unassigned; (+)), the melting point was 36.7 °C.

Turning to `CCOCc1nc2c(N)nc3ccccc3c2n1CCOCCNS(=O)(=O)C(C)C`, the melting point was 139 to 142 °C.

In turn, `CCC1(CC)Oc2ccc(C#N)cc2[C@@H](OC2=CC(=O)CC2)[C@@H]1O` (relative stereo) came in with a melting point of 166 to 170 °C.

As to `CN(C)C=CC(=O)c1ccc(Cl)c(S(=O)(=O)N=CN(C)C)c1`, the melting point was 204 to 206 °C.

Compound `c1ccc2c(c1)CCC(n1cncn1)C21OCCO1` (stereo not given) gave a melting point of 108 °C.

For the compound `N#Cc1ccc(-c2cn(-c3ccc(I)cc3)c(SCCO)n2)cc1`, the melting point was 148 to 172 °C.

Regarding `CC1CC(=O)NN=C1c1ccc(-c2ccc(=O)[nH]n2)cc1` (stereo not given), the melting point was more than 250 °C.

Turning to `COc1cc(C=C2C(=O)NC(=O)N2C)ccc1O`, the melting point was in the range of 197 to 198 °C.

In turn, `CCOc1cc(OCC)cc(-c2c(Cl)ncn2-c2ccc(S(C)(=O)=O)cc2)c1` came in with a melting point of 227 to 231 °C.

`COc1cc(OC)c2c(C)c(C(C)=O)c(=O)oc2c1`: the melting point fell in the range of 166 to 167 °C.

In turn, `O=C1C(=O)c2ccccc2C2=C1SCC1(CCN(C(=O)c3cccnc3)CC1)O2` displayed a melting point of 218 to 220 °C.

`COc1ccc(C(=O)NCc2ccc(Br)cc2F)c(OCC(=O)O)c1` had a melting point of 203 to 204 °C.

On to `O=C(O)C1Oc2cc3onc(-c4ccccc4)c3cc2O1` (stereo not given), for which the melting point lay within 202 to 204 °C.

Turning to `O=C(O)c1c(Cl)ccc2cc(C(F)(F)F)c(C(F)(F)F)nc12`, the melting point lay in the range of 108 to 111 °C.

Regarding `O=C(O)C(O)c1ccccc1Nc1c(Cl)cccc1Cl` (stereo not given), the melting point lay in the range of 140 to 142 °C.

`Cc1ccc(C(=O)Nc2ccc3ccc(Cl)nc3n2)nn1`: the melting point is 258 °C.

With `COc1cc(N)c(OC)c(OC)c1OC`, the melting point was in the range of 99 to 100 °C.

In turn, `COc1cc(Nc2nc3cccc(-c4cncc5ccccc45)c3o2)cc(OC)c1OC` came in with a melting point of 201 to 203 °C.

`COC(=O)CCCCCNC(=O)C(COS(C)(=O)=O)NS(=O)(=O)c1ccc(Cl)cc1` (racemic) returned a melting point of 81 to 84 °C.

Turning to `O=C(NC(=S)Nc1cc(Cl)cc(C(F)(F)F)c1Cl)c1c(F)cccc1F`, the melting point is 136 to 141 °C.

Compound `CCC(CC)Oc1cc(C)nc(Oc2c(C)cc(C(=O)O)cc2C)c1C` yielded a melting point of 168 °C.

As for `COC(=O)[C@@H]1C[C@H](OC(=O)c2ccccc2)C(=O)[C@H]2[C@@]1(C)CC[C@H]1C(=O)O[C@H](c3ccoc3)C[C@]21C`, the melting point was 165 to 170 °C.

As to `CC(C)(C)[N+]([O-])=Cc1ccc(S(N)(=O)=O)cc1`, the melting point amounted to 219 °C.

In turn, `Cc1cc(C(=O)N(C)C)ncc1C(c1cc(F)ccc1F)S(=O)(=O)c1ccc(Cl)cc1` (stereo not given) returned a melting point of 207 to 208 °C.

With `CCN(CC)CCNC(=O)N1CCC(S(=O)(=O)c2ccc(Cl)cc2)C1` (stereo not given), the melting point fell in the range of 86 to 87.5 °C.

On to `CCN(CC)C(=O)C(=NO)c1c[nH]c2c1ccc1c3ccccc3[nH]c12`, for which the melting point lay in the range of 268 to 269 °C.

The compound `CC=NN(C(=O)c1ccccc1)c1ccc(OC)cc1` had a melting point of 68 to 70 °C.

`N#Cc1ccccc1-c1nc2ncccc2o1` yielded a melting point of 166 to 167 °C.

As for `O=C(Cc1ccccc1)NC(C(=O)O)C(c1ccccc1)c1ccccc1` (stereo not given), the melting point came to 173 °C.

In turn, `CC(C)CC(=O)Nc1cc(-c2ccnc3c(C(=O)c4cccs4)cnn23)cs1` displayed a melting point of 234 to 235 °C.

In the case of `CC(C)c1cc(OCC(=O)N(Cc2ccccc2)Cc2ccccc2)cc2c1C(=O)N(COC(=O)c1c(Cl)cccc1Cl)S2(=O)=O`, the melting point was in the range of 110 to 112 °C.

Compound `CC(C)CNc1nc(-c2ccccc2)c(Cl)n2c(-c3ccc(C(=O)NC4CC4)cc3)cnc12` displayed a melting point of 180 °C.

The compound `CC1(C)CCC(NC(N)=O)CC1` yielded a melting point of 174 to 176 °C.

The compound `CC1(C)CC(C(O)CNc2nc(NCc3ccccc3)nc(NCC(O)C3CC(C)(C)NC(C)(C)C3)n2)CC(C)(C)N1` (stereo not given) yielded a melting point of 88 °C.

The compound `S=c1[nH]cnn1C1CCc2ccccc2C1` (stereo not given) registered a melting point of 200 °C.

Compound `CCn1c(O)cc(C)c(C#N)c1=O` had a melting point of 230 to 237 °C.

`CC(=O)c1ccc2c(c1)C(=C1CCN(C)CC1)c1ccccc1S2` returned a melting point of 125 to 127 °C.

Turning to `COc1cc(OC)nc(C(=O)c2cccc(Cl)c2C(=O)N(C)C)n1`, the melting point is 141 to 142 °C.

Consider `CNc1nc(NC)nc(NC)n1`, for which the melting point is 133 °C.

Compound `CCOC(=O)C=CC=Cc1ccc(F)c([N+](=O)[O-])c1` yielded a melting point of 106 to 107 °C.

In turn, `C[C@H](Cc1ccc2c(c1)cc(C(=O)O)n2CC1CC1)NC[C@H](O)c1cccc(Cl)c1` returned a melting point of 207 to 209 °C.

The compound `CCc1ccc(C=C2C(=O)c3cc(O)ccc3OC2c2ccc(CC)cc2)cc1` (stereo not given) yielded a melting point of 178 to 180 °C.

`COC(=O)C(=NO)c1nc2c(C)c(Cl)ccc2oc1=O` displayed a melting point of 190 to 191 °C.

Take `c1ccc(CC2CCN(Cc3nc4ccccc4[nH]3)CC2)cc1`: the melting point lay within 179 to 181 °C.

In turn, `CCCS(=O)c1sc(C(N)=O)c2c1-c1c(cnn1CC(F)(F)F)CC2` (stereo not given) showed a melting point of 165 to 166 °C.

Turning to `O=C(O)c1cccc2c1Oc1c(cccc1C(=O)O)N2`, the melting point was 146 °C.

`O=C1NC(=O)C(N(Cc2ccc(Br)cc2)c2ccc(CCNCC(O)COc3ccccc3)cc2)S1` (stereo not given): the melting point is 52 to 54 °C.

The compound `O=C(CN1CCC(Cc2ccccc2)CC1)Nc1ccc2[nH]c(=O)[nH]c2c1` yielded a melting point of 270 °C.

Consider `O=C(NNS(=O)(=O)c1ccccc1)c1ccc(F)cc1Cl`, for which the melting point was 147 to 149 °C.

Take `FC(F)(F)c1ccc(-c2cc(C(F)(F)F)n3cncc3n2)cc1`: the melting point came out at 158 °C.

The compound `O=C1NC(Cc2c[nH]c3ccccc23)C(=O)N1CCCN1CCC(c2ccccc2)CC1` (stereo not given) displayed a melting point of 179 to 180 °C.

`O=C(Cc1ccccc1)Cc1ccc(Cl)c(Cl)c1` displayed a melting point of 131 to 133 °C.

`CNC(=O)Cc1cc(=O)oc2cc(OCc3cccc(Cl)c3)ccc12` registered a melting point of 174 to 175 °C.

Turning to `CCOC(=O)CC12CC1CCCC2=O` (stereo not given), the melting point is 154 to 156 °C.
